The values that follow come from ChEMBL document CHEMBL1134843, “Tyrosine kinase inhibitors. 18. 6-Substituted 4-anilinoquinazolines and 4-anilinopyrido[3,4-d]pyrimidines as soluble, irreversible inhibitors of the epidermal growth factor receptor” (J Med Chem, 2001).

For experiment [1], the target named is Receptor tyrosine-protein kinase erbB-2 (Homo sapiens, UniProt P04626). Kind of experiment: Inhibition of heregulin-stimulated autophosphorylation of erbB2 in MDA-MB 453 cells. The format is cell-based.
Experiment [2] has as its system NCI-H125. Put plainly: In vivo activity in H125 tumor bearing mice, maximum weight loss days 15-29. The format is functional, Mus musculus.
Experiment [3] relates to NCI-H125. Kind of experiment: In vivo activity in H125 tumor bearing mice, maximum dose (schedule 15-29 days). The format is functional, Mus musculus.
The test system of experiment [4] is MCF7. Put plainly: In vivo activity in MCF-7 tumor bearing mice, ratio of treated and control tumor mass day 31. The format is functional.
Experiment [5] relates to NCI-H125. Kind of experiment: In vivo activity in H125 tumor bearing mice, relative time required for treated and control tumors to reach 750 mg (schedule 15-29 days). Format: functional, Mus musculus.
For experiment [6], the system named is A-431. Put plainly: In vivo activity in A431 tumor bearing mice, relative time required for treated and control tumors to reach 750 mg (schedule 12-26 days). Format: functional.
Experiment [7] relates to MCF7. Kind of experiment: In vivo activity in MCF-7 tumor bearing mice, relative time required for treated and control tumors to reach 750 mg (schedule 17-31 days). The format is functional.
The subject of experiment [8] is A-431. Put plainly: In vivo activity in A431 tumor bearing mice, maximum weight loss days 12-26. Format: functional.
The subject of experiment [9] is A-431. Kind of experiment: In vivo activity in A431 tumor bearing mice, maximum dose (schedule 12-26 days). The format is functional.
In experiment [10] the test system is MCF7. Put plainly: In vivo activity in MCF-7 tumor bearing mice, maximum dose (schedule 17-31 days). The format is functional.
Experiment [11] relates to A-431. Put plainly: In vivo activity in A431 tumor bearing mice, ratio of treated and control tumor mass day 26. Format: functional.
The test system of experiment [12] is NCI-H125. Put plainly: In vivo activity in H125 tumor bearing mice, ratio of treated and control tumor mass day 29. The format is functional, Mus musculus.
For experiment [13], the target named is Epidermal growth factor receptor (Homo sapiens, UniProt P00533).
Description: Inhibition of phosphorylation of a polyglutamic acid/tyrosine random copolymer by EGFR enzyme (from human A431 carcinoma cell vesicles)
For experiment [14], the system named is A-431. Kind of experiment: In vivo activity in A431 tumor bearing mice, maximum dose (schedule 10-24 days). The format is functional.
For experiment [15], the system named is MCF7. Kind of experiment: In vivo activity in MCF-7 tumor bearing mice, relative time required for treated and control tumors to reach 750 mg (schedule 11-25 days). Format: functional.
The subject of experiment [16] is MCF7. Kind of experiment: In vivo activity in MCF-7 tumor bearing mice, maximum dose (schedule 11-25 days). Format: functional.
The subject of experiment [17] is MCF7. Kind of experiment: In vivo activity in MCF-7 tumor bearing mice, maximum weight loss days 11-25. The format is functional.
In experiment [18] the test system is MCF7. Put plainly: In vivo activity in MCF-7 tumor bearing mice, ratio of treated and control tumor mass day 25. The format is functional.

Sequence of Receptor tyrosine-protein kinase erbB-2 (P04626 whole entry): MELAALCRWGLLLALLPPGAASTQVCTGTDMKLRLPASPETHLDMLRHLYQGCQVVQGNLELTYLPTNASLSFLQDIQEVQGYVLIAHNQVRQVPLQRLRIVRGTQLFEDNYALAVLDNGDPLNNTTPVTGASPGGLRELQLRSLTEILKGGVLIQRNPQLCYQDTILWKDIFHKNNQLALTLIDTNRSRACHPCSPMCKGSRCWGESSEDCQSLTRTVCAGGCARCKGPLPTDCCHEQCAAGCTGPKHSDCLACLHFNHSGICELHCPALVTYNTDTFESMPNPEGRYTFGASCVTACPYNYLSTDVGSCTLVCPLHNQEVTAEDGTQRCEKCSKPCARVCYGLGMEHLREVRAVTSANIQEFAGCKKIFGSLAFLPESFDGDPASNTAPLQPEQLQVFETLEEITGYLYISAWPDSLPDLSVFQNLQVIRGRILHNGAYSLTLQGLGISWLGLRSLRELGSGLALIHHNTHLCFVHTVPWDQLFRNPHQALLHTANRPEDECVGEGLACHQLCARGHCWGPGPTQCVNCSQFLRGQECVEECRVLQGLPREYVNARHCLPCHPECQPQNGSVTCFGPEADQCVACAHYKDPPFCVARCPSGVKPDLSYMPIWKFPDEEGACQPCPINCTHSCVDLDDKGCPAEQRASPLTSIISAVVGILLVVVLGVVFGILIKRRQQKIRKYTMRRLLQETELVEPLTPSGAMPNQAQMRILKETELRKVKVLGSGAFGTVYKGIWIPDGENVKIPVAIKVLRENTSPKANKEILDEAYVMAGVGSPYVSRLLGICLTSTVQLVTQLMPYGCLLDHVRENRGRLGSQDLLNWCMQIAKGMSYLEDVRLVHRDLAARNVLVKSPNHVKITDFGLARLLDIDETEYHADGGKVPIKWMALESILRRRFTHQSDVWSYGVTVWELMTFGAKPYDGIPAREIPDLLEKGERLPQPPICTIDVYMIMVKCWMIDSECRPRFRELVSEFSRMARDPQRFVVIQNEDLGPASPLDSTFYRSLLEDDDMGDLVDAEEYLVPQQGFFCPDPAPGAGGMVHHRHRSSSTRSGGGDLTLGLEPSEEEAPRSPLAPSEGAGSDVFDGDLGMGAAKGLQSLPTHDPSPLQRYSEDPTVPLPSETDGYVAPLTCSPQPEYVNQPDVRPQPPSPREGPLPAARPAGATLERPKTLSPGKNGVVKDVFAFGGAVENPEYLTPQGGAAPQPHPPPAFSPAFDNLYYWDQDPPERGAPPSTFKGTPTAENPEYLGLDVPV
Sequence of Epidermal growth factor receptor (P00533 whole entry): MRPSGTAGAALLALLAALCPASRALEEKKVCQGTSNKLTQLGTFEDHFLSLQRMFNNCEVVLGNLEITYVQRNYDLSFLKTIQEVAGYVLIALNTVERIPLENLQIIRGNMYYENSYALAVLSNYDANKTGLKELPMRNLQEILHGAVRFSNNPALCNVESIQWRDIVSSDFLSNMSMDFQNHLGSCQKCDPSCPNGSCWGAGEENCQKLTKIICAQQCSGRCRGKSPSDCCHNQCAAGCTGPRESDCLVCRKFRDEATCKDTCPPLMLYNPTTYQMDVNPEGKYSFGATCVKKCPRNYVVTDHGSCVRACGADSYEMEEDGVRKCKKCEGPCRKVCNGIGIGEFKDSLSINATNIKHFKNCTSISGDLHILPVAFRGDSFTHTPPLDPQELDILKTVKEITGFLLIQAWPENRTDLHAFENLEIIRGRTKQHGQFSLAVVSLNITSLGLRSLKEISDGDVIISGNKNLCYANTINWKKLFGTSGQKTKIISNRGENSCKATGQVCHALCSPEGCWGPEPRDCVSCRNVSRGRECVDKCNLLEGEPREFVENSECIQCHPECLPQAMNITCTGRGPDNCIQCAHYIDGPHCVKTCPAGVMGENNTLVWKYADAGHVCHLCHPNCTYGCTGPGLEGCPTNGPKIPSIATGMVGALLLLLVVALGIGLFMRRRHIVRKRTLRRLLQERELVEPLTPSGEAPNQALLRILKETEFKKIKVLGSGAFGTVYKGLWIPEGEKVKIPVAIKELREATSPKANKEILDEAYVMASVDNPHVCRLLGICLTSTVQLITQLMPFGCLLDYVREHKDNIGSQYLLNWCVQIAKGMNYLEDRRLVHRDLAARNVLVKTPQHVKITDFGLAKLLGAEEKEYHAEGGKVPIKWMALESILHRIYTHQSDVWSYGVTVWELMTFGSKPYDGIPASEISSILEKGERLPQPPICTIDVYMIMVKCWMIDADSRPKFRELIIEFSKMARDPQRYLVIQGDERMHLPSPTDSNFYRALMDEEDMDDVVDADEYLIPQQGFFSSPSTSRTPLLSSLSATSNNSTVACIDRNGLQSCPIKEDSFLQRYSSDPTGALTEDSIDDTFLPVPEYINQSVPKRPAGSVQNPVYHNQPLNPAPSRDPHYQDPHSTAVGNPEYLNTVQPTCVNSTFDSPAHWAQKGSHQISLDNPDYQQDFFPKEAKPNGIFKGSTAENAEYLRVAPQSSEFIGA

With `O=C(/C=C/C(=O)Nc1cc2c(Nc3ccc(F)c(Cl)c3)ncnc2cn1)NCCCN1CCOCC1`, in experiment [1], the IC50 (as a rule, the concentration that inhibits the measured activity by half) was found to be 24 nM. The Weight change is recorded as -0.3 g with NCI-H125 [2] and -0.1 g in the experiment on A-431 [8]. Besides, the HDT with NCI-H125 [3], in the experiment on A-431 [9] and in the experiment on MCF7 [10] was 200 mg/kg in each case. The T/C (in general, the ratio of treated to control) in the experiment on MCF7 [4] amounted to 124%; in the experiment on A-431 [11] it was 70%; with NCI-H125 [12], 23%. Also, the T-C in the experiment on NCI-H125 [5] is 7.9 days; with A-431 [6], 5.2 days; in the experiment on MCF7 [7], 6.8 days.
On to `O=C(/C=C/C(=O)Nc1cc2c(Nc3cccc(Br)c3)ncnc2cn1)NCCCN1CCOCC1`, for which it took 5 nM to reach half-maximal inhibition in [1] (IC50).
In [1], `CCN(CC)CCCNC(=O)/C=C/C(=O)Nc1cc2c(Nc3cccc(Br)c3)ncnc2cn1` yielded an IC50 of 14 nM.
The compound `O=S(=O)(CCO)c1cc2c(Nc3cccc(Br)c3)ncnc2cn1` returned an IC50 in [13] of 93.5 nM.
`O=C(/C=C/C(=O)Nc1cc2c(Nc3cccc(Br)c3)ncnc2cn1)NCCCn1ccnc1` displayed an IC50 in experiment [1] of 8.1 nM.
`C=CC(=O)N(C)c1cc2c(Nc3cccc(Br)c3)ncnc2cn1`: the figures for the Weight change in the experiment with NCI-H125 [2], in the experiment on MCF7 [17] and in the experiment on A-431 [8] were -0.4 g, -0.3 g and -0.1 g, respectively. For the same compound, the HDT in the experiment with A-431 [14], in the experiment on NCI-H125 [3] and with MCF7 [16] was 200 mg/kg throughout. The T-C came out at 1.5 days in the experiment on MCF7 [15], 7.3 days with NCI-H125 [5] and 5.2 days in the experiment with A-431 [6]. For the same compound, the values for the T/C in the experiment with MCF7 [18], with A-431 [11] and with NCI-H125 [12] were 88%, 62% and 56%, respectively.
For the compound `CN(C)CCCNC(=O)/C=C/C(=O)Nc1cc2c(Nc3cccc(Br)c3)ncnc2cn1`, the IC50 in experiment [1] is 13 nM. That is a double-digit nanomolar value.
Take `CN(C)CCCNC(=O)/C=C/C(=O)Nc1ccc2ncnc(Nc3cccc(Br)c3)c2c1`: the IC50 in [1] stood at 207 nM.
